Laboratory results as given in the NIST ThermoML archive (doi:10.1016/j.fluid.2007.06.008).
Numbers after ± are expanded uncertainties.

Tests used:
[1] = Liquid; for mass density: 101.33 kPa; for Normal boiling temperature: Ebulliometric method (Recirculating still)
[2] = refractive index (Na D-line) (dimensionless); conditions: 298.15 K; 101.33 kPa; Liquid; Standard Abbe refractometry

mass density ([1]; 298.15 K) [kg/m3] | Normal boiling temperature [1] [°C] | refractive index [2] | mass density ([1]; 303.15 K) [kg/m3] | Structure (SMILES)
785.04 ± 0.5 | 78.26 ± 0.1 | 1.3598 ± 0.0007 | – | CCO [ethanol]
659.62 ± 1.4 | 63.2 ± 0.1 | 1.3744 ± 0.0005 | – | CCC(C)CC [3-methylpentane]
– | 82.18 ± 0.1 | 1.3851 ± 0.0005 | 775.4 ± 0.66 | CC(C)(C)O [2-methylpropan-2-ol]
764.92 ± 1.1 | 100.81 ± 0.1 | 1.4208 ± 0.0005 | – | CC1CCCCC1 [methylcyclohexane]
